Literature values as cited in patent publication US5585244A, “Detection of retinoid X receptor subtype γ proteins” (Ligand Pharmaceuticals Incorporated, priority 1994, dated 1996).

What was measured:
[1] = target: retinoic acid receptors (RARs); conditions: 9cRA and tRA bind with equally high affinity
[2] = target: retinoid X receptors (RXRs)
[3] = target: retinoid X receptors (RXRs); conditions: versus tritiated 9cRA

CC1=C(/C=C/C(C)=C\C=C\C(C)=C\C(=O)O)C(C)(C)CCC1 [9cRA, 9-cis retinoic acid]
Kd [1]: 0.2 to 0.8 nM | Kd [2]: 1 to 2 nM

CC1=C(/C=C/C(C)=C/C=C/C(C)=C/C(=O)O)C(C)(C)CCC1 [tRA, all-trans retinoic acid]
Kd [1]: 0.2 to 0.8 nM | IC50 [3]: > 50000 nM
